Columns and labels:
PBMCs = test: Cytokine release from PHA-stimulated PBMCs; type: cell-based, human; conditions: 1, 2.5, and 5 μM, 18 h
Procedure: Human PBMCs from healthy donors were isolated from heparinized blood by density gradient centrifugation with Ficoll-Paque. The isolated cells were washed twice with PBS, resuspended in RPMI 1640 medium (Sigma-Aldrich, St. Louis, MO, USA) supplemented with 10% heat-inactivated fetal bovine serum (Gibco), 2 mM L-glutamine (Sigma-Aldrich), 100 U/mL penicillin (Sigma-Aldrich), and 100 μg/mL streptomycin (Sigma-Aldrich), and used in the assays.
Peripheral blood mononuclear cells were seeded (500,000 cells/well) in 24-well plates in 500 μL of growth medium and treated with compounds 94, 95, and neflamapimod (1, 2.5, and 5 μM) in the presence or absence of PHA (1 μg/mL) or the corresponding vehicle (0.1% DMSO). Cell-free supernatants were collected after 18 h of incubation (37 °C, 5% CO2) and stored at −80 °C until tested. Cytokine production was determined with BD Cytometric Bead Array human inflammatory cytokines kit (BD Bioscience) on an Attune NxT flow cytometer (Thermo Fisher Scientific, Waltham, MA, USA). Standard curves were generated using recombinant cytokines contained in the kit. The data were analyzed using the FlowJo (Tree Star, Inc., Ashland, OR, USA) and Prism (GraphPad Prism 6.0, GraphPad Software) software.

[1] = test system: scopolamine-induced cognitive deficits in mice; test: Passive avoidance task, scopolamine-induced amnesia; type: in vivo; conditions: 1–30 mg/kg i.p.
Source text: (§1) In the scopolamine model, the PA and NOR tasks were used for dose selection for further testing.
The mice had unlimited access to food and water prior to the experiment. Specified conditions for the maintenance of mice were ensured throughout the experiment, including tree bedding (Transwior, Poland) and cage enrichment (tunnels, nesting material, wooden igloos, etc.). For behavioral tests, the mice were selected randomly; each group consisted of 7–10 mice.
(§2) Scopolamine hydrobromide (Sigma-Aldrich, Poland) at the dose of 1 mg/kg was used to induce learning and memory deficits. For the in vivo tests, scopolamine was prepared in distilled water (Polfa Kutno, Poland) and was administered subcutaneously (s.c.) 30 min before behavioral tests during the acquisition (training) trial of PA and NOR tasks. […] They were administered intraperitoneally (i.p.) 60 min before the acquisition trial of the PA, NOR, and MWM tasks.
The PA apparatus (Panlab Harvard Apparatus, Spain) consists of a large white-colored illuminated compartment (26 cm × 26 cm × 34 cm) and a small black-colored compartment (13 cm × 7.5 cm × 7.5 cm), which are separated from each other by a guillotine gate (5 cm × 5 cm). The PA task is divided into two trials (i.e., the acquisition trial and the retention trial), each conducted 24 h apart. On the first day, during the acquisition trial (a conditioning phase), the test compounds (94 and 95, neflamapimod and vehicle) were injected. Also, before the acquisition trial, scopolamine or LPS was administered at selected time points. Then, each mouse was placed into the white compartment, and a 30 s habituation period began (guillotine gate is closed). After that, the guillotine gate was opened, and the mice were tested during the 180 s testing period. As soon as the mouse entered the black compartment of the PA device, the guillotine gate was closed and an electrical shock (intensity: 0.2 mA, duration: 2 s) was automatically applied through the grid floor. For each mouse, the latency between the opening of the guillotine gate and the mouse’s entering the black compartment was measured. On the next day, during the retention (drug-off) trial, the mice were placed again into the white compartment for a 30 s habituation period, and the latency to enter the black compartment was measured for each mouse.

[2] = test system: scopolamine-induced cognitive deficits in mice; test: Novel object recognition task, scopolamine-induced amnesia; type: in vivo; conditions: 1, 10, and 30 mg/kg i.p.; scopolamine model
Source text: as §1
The mice had unlimited access to food and water prior to the experiment. Specified conditions for the maintenance of mice were ensured throughout the experiment, including tree bedding (Transwior, Poland) and cage enrichment (tunnels, nesting material, wooden igloos, etc.). For behavioral tests, the mice were selected randomly; each group consisted of 7–10 mice. […] The procedures for maintenance and treatment of laboratory animals were approved by the first Local Ethics Committee in Krakow (Approval No. 645/2022, 760/2023, and 829/2024 and the treatment of animals was in full accordance with ethical standards laid down in respective Polish and EU regulations (Directive 2010/63/EU).
as §2
The experiment was conducted in opaque black boxes with dimensions of 50 × 50 × 50 cm. The 3 day procedure consists of habituation to the test arena (without any objects) for 10 min on the first day (T0), a training trial (T1), and a testing trial (T2) separated by a 24 h intertrial interval. During T1 (familiarization trial), two identical objects (A and B) were presented in the opposite corners of the arena, approximately 5 cm from its walls. During T2 (recognition trial), one of the objects (B) was replaced by a novel object (C), so that the animals were presented with A (familiar) and C (novel) objects. Both T1 and T2 trials lasted for 10 min, and after each trial, the animals returned to their home cages. White plastic round containers (height 5 cm, diameter 5 cm) attached to the ground with double-sided tape were used as the A, B objects, and green cuboids of similar height were used as object C. The objects were stable enough so that the animals could not displace them. The sequence of presentations and the location of the objects were randomly assigned to each mouse. The animals explored the objects by looking, licking, sniffing, or touching them while sniffing, but not when leaning against, standing, or sitting on the objects. Any mouse exploring the two objects for less than 5 s within the 10 min duration of T1 or T2 was eliminated from the study. An experimenter, blind to the drug treatment, measured the exploration time of the objects.

LPS-treated mice = test: Morris water maze task, LPS model of neuroinflammation; type: in vivo
Procedure: The compounds were administered for 10 consecutive days, and on the last 6 days of their administration, LPS was also administered intraperitoneally 5 h before the test compounds. On these 6 days, the acquisition phase of the MWM task was performed. One day later, the retention, drug-off trial of the MWM task was carried out.
In the LPS model adult male C57BL/6J mice (Animal Breeding Farm of the Faculty of Pharmacy, Jagiellonian University Medical College) of similar weight and age were used. […] The mice had unlimited access to food and water prior to the experiment. Specified conditions for the maintenance of mice were ensured throughout the experiment, including tree bedding (Transwior, Poland) and cage enrichment (tunnels, nesting material, wooden igloos, etc.). For behavioral tests, the mice were selected randomly; each group consisted of 7–10 mice. […] After in vivo tests, the animals were immediately euthanized, and their tissues were collected and stored for further ex vivo testing.
LPS (Lipopolysaccharide from Escherichia coli O111:B4, Sigma-Aldrich, Poland) was used to induce neuroinflammation in mice. […] They were administered intraperitoneally (i.p.) 60 min before the acquisition trial of the PA, NOR, and MWM tasks. […] In the rotarod, locomotor activity, and MWM tests, only one dose effective in the scopolamine model of amnesia was evaluated.
The Morris water maze is a circular, plastic, and gray-painted pool (120 cm in diameter and 60 cm in height), filled with water (up to about 48 cm below the edge to prevent an animal from jumping out), maintained at 23 ± 1 °C. The pool was divided into four equal quadrants (compass locations: NE, NW, SE, SW) by a computerized video tracking system (SMART, ver. 3.0; Panlab, Spain). An escape platform (11 cm in diameter and 47 cm in height) at a fixed location (the center of the NW quadrant, i.e., the target quadrant) was made of transparent Plexiglas, being invisible to the swimming animal, and was immersed 1 cm under the surface of water. The maze was lighted with an intensity of 45 lx. […] The time taken to reach the hidden platform (escape latency) on days 1–6 was recorded for each mouse and analyzed. Each animal was released from a different starting point and was allowed to swim for 60 s. […] On the seventh day (a drug-off trial conducted 24 h after the last training trial), the platform was removed from the pool, and a probe trial was performed (without drug treatmentassessment of memory retention).

[3] = test system: mice (motor coordination); test: Rotarod test; conditions: 6, 18, and 24 rpm; all mice of the group
Procedure: For behavioral tests, the mice were selected randomly; each group consisted of 7–10 mice.
In the rotarod, locomotor activity, and MWM tests, only one dose effective in the scopolamine model of amnesia was evaluated.
Three days before the rotarod test, the mice were trained on the rotarod apparatus (Rotarod apparatus, May Commat RR0711, Turkey; rod diameter: 2 cm) that was rotated at a fixed speed of 18 rpm. In each training session, the mice were placed on the rotating rod for 3 min with an unlimited number of trials. The proper experiment was performed 24 h after the last training trial. […] Motor impairments in mice were defined as the inability to remain on the rotarod apparatus for 1 min. The results are expressed as the mean time spent on the rotarod.

[4] = test system: mice (locomotor activity); test: Locomotor activity test; conditions: 30 mg/kg, i.p., mean ± SEM
Source text: The mice had unlimited access to food and water prior to the experiment. Specified conditions for the maintenance of mice were ensured throughout the experiment, including tree bedding (Transwior, Poland) and cage enrichment (tunnels, nesting material, wooden igloos, etc.). For behavioral tests, the mice were selected randomly; each group consisted of 7–10 mice. […] After in vivo tests, the animals were immediately euthanized, and their tissues were collected and stored for further ex vivo testing.
They were administered intraperitoneally (i.p.) 60 min before the acquisition trial of the PA, NOR, and MWM tasks.
The locomotor activity test was performed using activity cages (40 cm × 40 cm × 30 cm, supplied with IR beam emitters) (Activity Cage 7441, Ugo Basile, Italy) connected to a counter for the recording of light-beam interrupts. […] The animals’ movements (i.e., the number of light-beam crossings) were counted during the next 60 min of the test. Before the experiment, the mice were habituated to activity cages for 15 min.

[5] = Pharmacokinetic study in mice; conditions: for Kp: brain/serum; for half-life: serum and brain
Procedure: In this study, male CD-1 mice weighing 27–34 g housed in conditions of constant temperature with a 12:12 h light-dark cycle with free access to food and water were used. Both tested and reference compounds were suspended in 1% Tween in water for injection (Polpharma, Poland) and administered intraperitoneally (i.p.). The mice were sacrificed by decapitation under isoflurane anesthesia at different time points following compound administration. Brains were harvested at the same time points. Blood was allowed to clot at room temperature for 20 min, and serum was separated by centrifugation at 8 000g (Eppendorf MiniSpin centrifuge, Germany) for 10 min. All samples were stored at −80 °C until analysis.
The analytical workflow employed a Sciex QTRAP 4500 triple quadrupole mass spectrometer interfaced with an Exion LC AC HPLC system (Danaher Corporation, USA). Chromatographic separation was achieved on an XBridge C18 column (3 × 50 mm, 5 μm; Waters, USA), utilizing a mobile phase composed of acetonitrile and water both containing 0.1% formic acid. The column temperature was maintained at 40 °C, and a gradient elution protocol (Table S10) was implemented to ensure optimal analyte resolution and retention times. Mass spectrometric detection was conducted in unit resolution mode, with ion transitions specified in Table S11. […] Valsartan served as the internal standard and was monitored at m/z 436 → 207 (collision energy = 42 eV). Positive electrospray ionization (ESI+) was employed to enhance detection sensitivity. Ion path parameters (Table S11) were optimized via direct infusion of analyte solutions (7 μL/min) using a syringe pump. The optimized source conditions included an ion spray voltage of 5500 V, a source temperature of 450 °C, curtain gas pressure at 20 psi, and medium collision gas pressure. […] No significant matrix effects or stability concerns were observed during routine sample analysis. Data acquisition and processing were carried out using Analyst software version 1.7.
Serial dilutions were performed to generate working solutions ranging from 0.01 to 20 μg/mL, corresponding to final calibration concentrations of 0.001–2 μg/mL. For calibration curve construction, 5 μL of each working solution was spiked into 45 μL of the relevant biological matrix (serum or brain homogenate) and vortexed for 10 s. Sample preparation involved protein precipitation, in a 1:3 (v/v) ratio, using acetonitrile containing 0.1% formic acid and the internal standard. The mixtures were agitated for 10 min using an IKA Vibrax VXR shaker (Germany), followed by centrifugation at 8000 × g for 5 min (Eppendorf miniSpin, Germany). The resulting supernatants were transferred to chromatographic vials for analysis.
Brain tissues were homogenized in distilled water at a 1:4 (w/v) ratio using an ULTRA-TURRAX T10 basic homogenizer (IKA, Germany). Aliquots of brain homogenate or serum (50 μL) were subjected to protein precipitation in a 1:3 (v/v) ratio with acetonitrile containing 0.1% formic acid and the internal standard. The mixtures were agitated for 10 min using an IKA Vibrax VXR shaker (Germany), followed by centrifugation at 8000 × g for 5 min (Eppendorf miniSpin, Germany). The resulting supernatants were directly transferred to chromatographic vials for analysis. In cases where analyte concentrations in serum exceeded 20 μg/mL, samples were diluted with blank matrix prior to the deproteinization step. The autosampler was maintained at 15 °C, and a 1 μL aliquot was injected onto the analytical column.
Pharmacokinetic parameters were estimated using the noncompartmental analysis (NCA). The maximum concentration (C max) and the time to reach maximum concentration (t max) in serum and brain were obtained directly from the concentration versus time data.

[6] = test system: TLR4, COX-2, NLRP3, cPLA2 levels in brains of LPS-treated mice; test: Western blot of brains of LPS-treated mice (ex vivo); type: in vivo; conditions: 94, 95: 10 mg/kg i.p.; rivastigmine 1 mg/kg i.p.; vs LPS-treated control
Procedure: After the completion of cognitive assays carried out in the LPS model, the mice were sacrificed, and their brains were collected and stored for further analysis. In the ex vivo part of the study, murine brains were homogenized using T-PER mammalian protein extraction reagent (Thermo Fisher Scientific, Waltham, MA, USA) with protease (Merck Millipore, Burlington, MA, USA) and phosphatase inhibitors (Cayman Chemical, Ann Arbor, MI, USA). The total protein concentrations were determined using the Bradford reaction. Forty μg of the total proteins were solubilized in Laemmli buffer with 2% 2-mercaptoethanol and were subject to 10% SDS-polyacrylamide gel electrophoresis. The anticyclooxygenase 2 (COX-2, diluted 1:1000), antitoll-like receptor 4 (TLR4, diluted 1:1000), anticytosolic phospholipase A2 (cPLA2, 1:1000), and anti-inflammasome (NLPR3, diluted 1:500) were used (Thermo Fisher Scientific, Waltham, MA, USA). The endogenous control was β-actin (1:1000) (Thermo Fisher Scientific, Waltham, MA, USA). The secondary antibody was antirabbit IgG (HRP) diluted 1:2000 (Thermo Fisher Scientific, Waltham, MA, USA). Proteins were detected using the Clarity Western ECL Luminol Substrate (Bio-Rad, Hercules, CA, USA). Chemi Doc Camera with Image Lab 6.1 software (Bio-Rad) was used to quantify the integrated optical density of the bands. The results were normalized to the data obtained for β-actin after stripping the PVDF membrane using Restore Western Blot Stripping Buffer (Thermo Fisher Scientific, Waltham, MA, USA) and expressed as relative to the control. This thorough process ensures the validity and reliability of the results.

[7] = PAMPA
[8] = test system: mice (motor coordination); conditions: already at the dose of 1 mg/kg, as shown previously; cited from earlier work
[9] = test system: scopolamine-induced cognitive deficits in mice; conditions: scopolamine-induced memory-impaired mice; doses of 1 and 2.5 mg/kg; reported previously; cited from earlier work
[10] = test system: scopolamine-induced cognitive deficits in mice; conditions: 1 and 2.5 mg/kg doses; as shown previously; cited from earlier work
[11] = 10 mg/kg i.p., p < 0.05 vs LPS-treated control
[12] = brain, neflamapimod 30 mg/kg i.p., mice
[13] = male, CD-1, mouse, brain, ip, 30 mg/kg
[14] = male, CD-1, mouse, ip, 30 mg/kg
[15] = male, CD-1, mouse, serum, ip, 30 mg/kg
[16] = brain, rivastigmine 2.5 mg/kg i.p., mice
[17] = male, CD-1, mouse, brain, ip, 2.5 mg/kg
[18] = male, CD-1, mouse, ip, 2.5 mg/kg
[19] = male, CD-1, mouse, serum, ip, 2.5 mg/kg

In the case of `O=c1ncn2nc(Sc3ccc(F)cc3F)ccc2c1-c1c(Cl)cccc1Cl` [neflamapimod, reference compound], the “production of pro-inflammatory cytokines IL-8, IL-1β, IL-6, IL-10, and TNF-α” value (PBMCs) is reported as “significantly inhibited”, the “effect on scopolamine-induced memory decline in PA task” value [1] is reported as “did not confirm memory-improving properties” and the “effect in NOR task” value [2] is reported as “did not reveal its memory-improving properties”. For the same compound, the “time spent at the target zone (MWM day 7)” value (LPS-treated mice; [11]) was “increased”, the “time spent in the NW zone (MWM day 7)” value (LPS-treated mice; [11]) was “increased” and the “spatial learning, acquisition phase of MWM” value (LPS-treated mice; 10 and 30 mg/kg i.p., LPS-treated mice) was “effective in improving spatial learning only on day 3”. For the same compound, the “time spent on the rotarod” value [3] was 60 s, the “number of light-beam crossings” value [4] was 2481 ± 195 and the “AUC0-∞” value [5, 12] was 755355.60 ng·min/mL(g). The AUC(0-t) [5, 12] was 566796.70 ng·min/mL(g), the t0.5λz [5, 12] was 1049.79 min and the Cmax [5, 13] was 2290 ng/g. It also gave an MRT [5, 13] of 999 min, a Tmax [5, 13] of 15 min and a k el [5, 13] of 1.1e-05 s⁻¹. It also gave a Kp [5, 14] of 0.68, a half-life [5, 14] of roughly 1000 min and an AUC(0-inf) [5, 15] of 18700 ng·h/mL. The AUC(0-t) [5, 15] was 14400 ng·h/mL, the CL/F [5, 15] was 27 mL/min/kg and the Cmax [5, 15] was 4090 ng/mL. The MRT [5, 15] was 903 min, the Tmax [5, 15] was 15 min and the Vd/F [5, 15] was 37.8 L/kg. For the same compound, the k el [5, 15] was 1.18e-05 s⁻¹ and the t0.5λz ([5]; serum, neflamapimod 30 mg/kg i.p., mice) was 978.45 min.
In the case of `CCN(C)C(=O)Oc1cccc([C@H](C)N(C)C)c1` [rivastigmine, reference compound], the “efficacy in the LPS model of neuroinflammation accompanied by memory decline” value (LPS-treated mice; 1 mg/kg i.p.) is reported as “not effective”, the “escape latency, acquisition phase of MWM” value (LPS-treated mice; 1 mg/kg i.p., vs LPS-treated control, transient, not on days 4–6) is reported as “statistically significantly lower escape latencies were observed on day 3” and the “brain cPLA2 expression” value [6] is reported as “no difference”. For the same compound, the “brain levels of TLR4, COX-2, and NLRP3” value [6] was “significantly lower levels”, the “CNS (+/–)” value [7] was “CNS+ (key: CNS+ indicates high predicted BBB permeation [Pe (×10–6 cm/s) > 4.0]; CNS– indicates low predicted BBB permeation [Pe (×10–6 cm/s) < 2.0])” and the “motor side effects shortly after administration” value [8] was “caused muscle tremor and transient motor coordination deficits”. The “procognitive efficacy in PA task” value [9] was “procognitive activity”, the “efficacy in PA and NOR tasks” value [10] was “effective” and the “AUC0-∞” value [5, 16] was 12082.71 ng·min/mL(g). For the same compound, the AUC(0-t) [5, 16] was 11678.40 ng·min/mL(g), the t0.5λz [5, 16] was 32.64 min and the Cmax [5, 17] was 609 ng/g. For the same compound, the MRT [5, 17] was 26.6 min, the Tmax [5, 17] was 5 min and the k el [5, 17] was 0.00035 s⁻¹. The Kp [5, 18] was 4.16, the half-life [5, 18] was roughly 30 min and the AUC(0-inf) [5, 19] was 48.4 ng·h/mL. It also gave an AUC(0-t) [5, 19] of 46.8 ng·h/mL, a CL/F [5, 19] of 860 mL/min/kg and a Cmax [5, 19] of 142 ng/mL. For the same compound, the MRT [5, 19] was 27.8 min, the Tmax [5, 19] was 5 min and the Vd/F [5, 19] was 37.2 L/kg. It also gave a k el [5, 19] of 0.000383 s⁻¹ and a t0.5λz ([5]; serum, rivastigmine 2.5 mg/kg i.p., mice) of 29.99 min.

From publication PMC12406203 (Journal of Medicinal Chemistry, 2025)
